Data on two compounds can be found in patent publication US20220218725A1, “METHODS AND MATERIALS FOR TREATING CANCER” (Mayo Foundation for Medical Education and Research, priority 2019, published 2022).

In one data set the test system is Hs 578T cells. The data set can be described thus: Cell viability, Annexin V/PI assay. The data set is classed as cell-based. The note with it: Hs 578T (Breast cancer); 48 hours; KPT-330 0.1-1.0 μM, CS 1-3 mM, single agent or combination.
A further data set relates to SW872 cells. Kind of data set: Cell viability, Annexin V/PI assay. The note with it: SW872 (Sarcoma); 48 hours; KPT-330 0.1-1.0 μM, CS 1-3 mM, single agent or combination. The data set is classed as cell-based. As to the method:
(§1) Cell lines were purchased from the cell line repositories ATCC (Manassas, Va.) or DSMZ (Braunschweig, Germany). These included MCL cell lines: JeKo-1, Mino; TCL cell lines: Karpas-299, SR-786; DLBCL cell lines: OCI-Ly1 (LY-1), OCI-Ly3 (LY-3), OCI-Ly19 (LY-19), SU-DHL-6 (DHL-6); MM cell lines: RPMI, U266, OPM2, Xgl, KMS2; ALL cell lines: CRL-1783; non-small cell lung cancer: NCI-H460, A549, HCC827; small cell lung cancer: H1048; sarcoma: Fuji, SW872. Cell lines were cultured according to instruction.
(§2) KPT-330 purchased from Selleckchem (cat no: S7252) was dissolved in DMSO while CS (Santa Cruz, Calif.S 2016-36-6), sodium salicylate (Sigma-Aldrich, cat no: S3007), acetyl salicylate (Sigma-Aldrich, cat no: CAS 50-78-2) was diluted in PBS. Ketorolac (Sigma-Aldrich, cat no: 1356665), Bortezomib (Selleckchem, cat no: S1013), gemcitabine (Sigma-Aldrich, cat no: G6423), Leptomycin-B (Sigma-Aldrich, cat no: L2913-2X) and KPT-185 (Selleckchem, cat no: S7125) were dissolved in DMSO. The concentration range of KPT-330 was 0.05-1.0 μM while CS was 1-3 mM were used for ex vivo treatment and incubation time ranged from 24 hours to 72 hours. For the PARP inhibitor assay, olaparib 10 μM (SelleckChem, cat no: AZD2281 Ku-0059436) was used.
(§3) The viability assessment for cell lines and primary patients samples were conducted with the Annexin V/PI method.

Another data set concerns KMS2 cells. Kind of data set: Cell viability, Annexin V/PI assay. The data set is classed as cell-based. The note with it: KMS2 (MM); 48 hours; KPT-330 0.1-1.0 μM, CS 1-3 mM, single agent or combination. The method, then: as §1, §2, §3
Another data set has as its system OPM2 cells. The data set can be described thus: Cell viability, Annexin V/PI assay. The data set is classed as cell-based. The note with it: OPM2 (MM); 48 hours; KPT-330 0.1-1.0 μM, CS 1-3 mM, single agent or combination. As to the method: as §1, §2, §3
Another data set concerns H460 cells. Kind of data set: Cell viability, Annexin V/PI assay. In kind it is cell-based. The note with it: H460 (Non-small cell lung cancer); 48 hours; KPT-330 0.1-1.0 μM, CS 1-3 mM, single agent or combination. As to the method: as §1, §2, §3
The subject of the next data set is FuJi cells. The data set can be described thus: Cell viability, Annexin V/PI assay. In kind it is cell-based. The note with it: FuJi (Sarcoma); 48 hours; KPT-330 0.1-1.0 μM, CS 1-3 mM, single agent or combination. As to the method: as §1, §2, §3
Another data set concerns HCC827 cells. Kind of data set: Cell viability, Annexin V/PI assay. The note with it: HCC827 (Non-small cell lung cancer); 48 hours; KPT-330 0.1-1.0 μM, CS 1-3 mM, single agent or combination. In kind it is cell-based. As to the method:
as §1, §2, §3

The next data set relates to L3.6 cells. Kind of data set: Cell viability, Annexin V/PI assay. The note with it: L3.6 (Pancreatic cancer); 48 hours; KPT-330 0.1-1.0 μM, CS 1-3 mM, single agent or combination. In kind it is cell-based.
For another data set, the system named is BT-20 cells. The data set can be described thus: Cell viability, Annexin V/PI assay. In kind it is cell-based. The note with it: BT-20 (Breast cancer); 48 hours; KPT-330 0.1-1.0 μM, CS 1-3 mM, single agent or combination.
A further data set relates to OCI-Ly1 cells. Kind of data set: Cell viability, Annexin V/PI assay (also IC50 and combination index). As to the method: To assess apoptosis and cellular proliferation, all cell lines were treated with CRM 1 inhibitors (concentration ranging from 0.05-2 μM) and salicylates at concentrations ranging from (0.001-10 mM) for 48 hours before analysis was performed. DMSO was used to substitute the drug in controls.
After 48 hours incubation, cells were washed with Annexin buffer solution and stained with both propidium iodide (PI) and FITC-Annexin V (Life Technologies), and assayed on a BD Accuri flow cytometer (BD Biosciences). Apoptosis results were analyzed with BD CellQuest software. […]
Jeko-1 and OCI-Ly1 cell lines were used to assess the IC50. […] Relative IC50 was calculated as described elsewhere (see, e.g., Sebaugh et al., Pharmaceutical statistics 10:128-134 (2011)). The combination index was calculated as described elsewhere (see, e.g., Chou et al., Cancer Res 70:440-446 (2010)).

The next data set concerns MCF7 cells. The data set can be described thus: Cell viability, Annexin V/PI assay. The data set is classed as cell-based. The note with it: MCF7 (Breast cancer); 48 hours; KPT-330 0.1-1.0 μM, CS 1-3 mM, single agent or combination.
A further data set deals with OCI-Ly3 cells. The data set can be described thus: Cell viability, Annexin V/PI assay. In kind it is cell-based. The note with it: OCI-Ly3 (DLBCL); 48 hours; KPT-330 0.1-1.0 μM, CS 1-3 mM, single agent or combination. The method, then: DMSO was used to substitute the drug in controls.
Apoptosis results were analyzed with BD CellQuest software.
Cell lines were cultured according to instruction.

Another data set has as its system BT-474 cells. Kind of data set: Cell viability, Annexin V/PI assay. The data set is classed as cell-based. The note with it: BT-474 (Breast cancer); 48 hours; KPT-330 0.1-1.0 μM, CS 1-3 mM, single agent or combination.
Data set [1] concerns CMML patient-derived bone marrow sample. The data set can be described thus: Hematopoietic progenitor colony forming assay. In kind it is cell-based, human. The note with it: assessed by counting colony forming units in methyl cellulose media, KPT-330 0.05-0.5 μM, CS 1-3 mM. The source says:
CMML patient-derived bone marrow samples were first treated with ammonium chloride to deplete red blood cells, washed in RPMI, then plated at a final concentration of 5×10^4-2×10^5 cells/mL in addition to drug(s). This solution was immediately inoculated into methylcellulose (StemCell) formulated with recombinant cytokines to support the optimal growth of erythroid progenitor cells, granulocyte-macrophage progenitor cells, and multipotent granulocyte, erythroid, macrophage and megakaryocyte progenitor cells. Plates were incubated with respective treatment conditions at 37° C. and colonies were enumerated on day 10-14.

Procedure for BT-20 cells: (§4) KPT-330 purchased from Selleckchem (cat no: S7252) was dissolved in DMSO while CS (Santa Cruz, Calif.S 2016-36-6), sodium salicylate (Sigma-Aldrich, cat no: S3007), acetyl salicylate (Sigma-Aldrich, cat no: CAS 50-78-2) was diluted in PBS. […] The concentration range of KPT-330 was 0.05-1.0 μM while CS was 1-3 mM were used for ex vivo treatment and incubation time ranged from 24 hours to 72 hours.
Procedure for BT-474 cells: as §4
Procedure for Hs 578T cells: as §4
Procedure for L3.6 cells: as §4
Procedure for MCF7 cells: as §4

For the compound `C[N+](C)(C)CCO.O=C([O-])c1ccccc1O` [CS, choline salicylate], the “% viability normalized for respective controls” value (from here on “% viability normalized”) with Hs 578T cells was 87%; with SW872 cells it was 88%; in the data set with KMS2 cells, 83%; with OPM2 cells, 98%; with H460 cells, 105%; with FuJi cells, 85%. Besides, the “% viability normalized” value in the data set on HCC827 cells is reported as 90%; with L3.6 cells it was 72%; with BT-20 cells, 89%; with OCI-Ly1 cells (OCI-Ly1 (DLBCL), 48 hours, KPT-330 0.1-1.0 μM, CS 1-3 mM, single agent or combination) it was 101%; in the data set on MCF7 cells, 87%; in the data set on OCI-Ly3 cells, 84%. Besides, the “% viability normalized” value with BT-474 cells came out at 110%; in data set [1] it was 53%.
With `O=C(/C=C\n1cnc(-c2cc(C(F)(F)F)cc(C(F)(F)F)c2)n1)NNc1cnccn1` [KPT-330, (Z)-3-[3-[3,5-bis (trifluoromethyl)phenyl]-1,2,4-triazol-1-yl]-N′-pyrazin-2-ylprop-2-enehydrazide], the “% viability normalized” value amounted to 73% with Hs 578T cells; 82% with SW872 cells; 79% in the data set with KMS2 cells; 82% with OPM2 cells; 93% with H460 cells; 93% in the data set on FuJi cells. For the same compound, the “% viability normalized” value in the data set with HCC827 cells stood at 78%; in the data set on L3.6 cells, 61%; in the data set on BT-20 cells, 58%; in the data set with MCF7 cells, 98%; with OCI-Ly3 cells it was 85%; in the data set on BT-474 cells it was 73%. Further, the “% viability normalized” value in data set [1] is recorded as 56%. In the data set on OCI-Ly1 cells (Homo sapiens, OCI-Ly1, 72 h), the concentration for half-maximal inhibition (IC50) stood at 1.8 µM.

Broadly, the IC50 is the concentration needed to halve the response being measured.
